Experimental data: patent US10406134B2, “Methods of treating an overweight subject” (Zafgen, Inc., priority 2010, dated 2019)

Tests used:
[1] = 7-day oral weight loss study in diet-induced obese mice; format: in vivo, C57BL/6NTac mice; settings: DIO mice; for weight change over the course of the study: 1.0 mg/kg oral once a day for 7 days
Description: A weight loss study was conducted in obese mice. The mice in this study were not genetically obese, but prior to and during the study, obesity was induced by a high-fat diet. Twelve week-old C57BL/6NTac mice, maintained on a 60% fat diet prior to and during the study, were separated into seven groups, eight animals per group. Average body weight of the mice was approximately 47 g at the start of the study.
Each of six groups was orally administered 1.0 mg/kg of a compound ([…] compounds B. C, D, E, F and G as disclosed herein), in 10% gelucire in deoinised water. Each of these six groups was administered a different compound. One group was orally administered fumagillin at 1.0 mg/kg (group 201) in 10% gelucire in deoinised water, and one group was administered 10% gelucire in deoinised water (vehicle). Mice received administrations once a day for 7 days.
(Data analyzed by ANCOVA with body weight on Day 1 as covariate followed by multiple tests against vehicle group: *p<0.05; **p<0.01, ***p<0.001.)
A weight loss study was conducted in obese mice, similar to Example 5. Twelve week-old C57BL/6NTac mice, maintained on a 60% fat diet prior to and during the study, were separated into seven groups, eight animals per group. Average body weight of the mice was approximately 47 g at the start of the study.
The group was orally administered […] of a compound H, in 10% gelucire in deoinised water. Mice received administrations once a day for 7 days. After 7 days, the average weight loss of the mice was 13.2%.

TXN in 293T cells = experiment: FLAG-tagged TXN expression in transfected 293T cells (gel); format: cell-based; settings: 293T cells transfected with FLAG-tagged TXN
Description: (§1) EC50 of fumagillin to increase TXN levels is <10 nM.

TXN in Cos-1 cells = experiment: FLAG-tagged TXN expression in transfected Cos-1 cells (gel); format: cell-based
Description: as §1

[2] = Oral glucose tolerance test (OGTT) in overweight dogs; format: in vivo
Description: (§2) The effects of an 8 week treatment with ZGN-201 (ZGN) on body weight and metabolic parameters in 6 overweight dogs (3 HFF and 3 chow-fed (OWC)) were evaluated. The study was comprised of three phases—pretreatment (PT: 4 weeks), treatment (ZGNTx: 8 weeks), and washout (WO: 4 weeks). FI, BW, blood chemistry and hematology, beta-hydroxybutyrate (BHB), and glycerol were assessed weekly. Oral glucose tolerance tests (OGTT, 0.9 g/kg initial BW) were performed at the end of PT, ZGNTx, and WO.

[3] = 10-day oral gavage in C57BL/6 mice conditioned on a high fat diet; format: in vivo; settings: 0.3 or 3 mg/kg daily oral gavage, 10 days
Description: (§3) Oral administration of the MetAP2 inhibitor fumagillin causes an increase in circulating ketone bodies, as measured by concentration of beta hydroxybutyrate, which indicates an increase in the breakdown of stored fat.

[4] = test system: Thioredoxin-1 (TXN) in B16F10 cells; experiment: N-terminal chymotryptic fragments of TXN measured by LC/MS in B16F10 cells treated with fumagillin; format: cell-based
Description: B16F10 cells were treated with increasing concentrations of fumagillin. N-terminal chymotryptic fragments of TXN were measured by liquid chromatography/mass spectrometry (LC/MS). […] The EC50 of fumagillin to increase Met-TXN acetylated Met-TXN levels is <10 nM.

[5] = 8 week oral treatment in overweight dogs, body weight and metabolic parameters; format: in vivo
Description: as §2, with “The study was comprised of three phases—pretreatment (PT: 4 weeks), treatment (ZGNTx: 8 weeks), and washout (WO: 4 weeks).” left out

[6] = 28-day oral gavage in high fat diet C57BL/6 mice, fat and lean tissue change; format: in vivo; settings: 0.1 or 0.3 mg/kg oral gavage, 28 days
Description: C57BL/6 mice were conditioned on a low-fat diet (LF), a high fat diet (HF), or a high-fat diet and treated with fumagillin (ZGN-201) administered by oral gavage at doses of 0.1 or 0.3 mg/kg for 28 days. […] To determine whether the weight loss resulted from loss of fat or loss of lean tissue, the percentage change in fat tissue and lean tissue was determined for LF mice, HF mice, HF mice treated with 0.1 mg/kg fumagillin, and HF mice treated with 0.3 mg/kg fumagillin.
Upon histological examination, the studies of treated obese mice show no effect on growth of new blood vessels in growing fat depots and no effect on blood vessel size or density when compared to animals in which weight loss has been induced by simple energy (food) restriction.

[7] = 14-day treatment of high fat diet-fed C57BL/6 mice, body weight and food intake; format: in vivo; settings: 1 mg/kg
Description: High fat diet-fed C57BL/6 mice were treated with 1 mg/kg of the MetAP2 inhibitor fumagillin (ZGN-201, squares) or vehicle (diamonds) for 14 days (FIG. 10). Body weights (left panel) were determined daily, while food intake (right panel) was assessed every other day by measuring the food consumed by each cage of three mice over the two day period. Data shown in FIG. 10 are means±SEM, n=9 animals. […] First, during the initial two to three days of treatment, no overt changes in food intake or body weight are observed. During this time period key changes in MetAP2 substrates occur, including glyceraldehyde-3-phosphate dehydrogenase and thioredoxin (data not shown). Second, the animals enter a period of rapid weight loss that proceeds until essentially all excess fat deposits are consumed. During this second period, fat oxidation is enhanced and food intake is inhibited.
Weight loss following treatment with therapeutically relevant doses of MetAP2 inhibitors stops once animals attain a normal body composition. […] This third phase can be maintained indefinitely provided the drug is continued (see FIG. 10), or presumably can be maintained in practice through other complementary pharmacologic, dietary, or lifestyle interventions.

[8] = 250-day diet admixture in C57BL/6 mice conditioned on a high fat diet; format: in vivo
Description: as §3
In addition to showing an increase in beta hydroxybutyrate concentration, C57BL/6 mice conditioned on a high fat diet and treated with fumagillin (ZGN-201) as a diet admixture (1 mg/kg daily for 250 days) also experienced a reduction in body fat by approximately 40 percent (FIG. 6). Once attaining the maximum weight reduction, mice treated daily with 1 mg/kg fumagillin maintained a weight that was 25% less than that of age-matched mice maintained on normal mouse chow diet (lean mice, FIG. 6) for the duration of the experiment.
Adipose tissue in mice fed a high-fat diet show distinctive crown-like structures not seen in lean mice. These crown-like structures were also absent from the adipose tissue of fumagillin-treated mice.

[9] = High-fat high fructose dogs, WO
[10] = High-fat high fructose dogs, ZGNTx
[11] = diet admixture 1 mg/kg daily, 250 days

Molecule `CCN(CC)C/C=C\c1ccccc1S(=O)(=O)Nc1ccc2c(c1C(=O)O)CCCC2` [H] has an average weight loss ([1]; 100.0 mg/kg oral once a day, after 7 days) of 13.2%.
In the case of `CO[C@@H]1[C@H](OC(=O)N[C@@H](C(N)=O)C(C)C)CC[C@]2(CO2)[C@H]1[C@@]1(C)O[C@@H]1CC=C(C)C` [B], the “weight change over the course of the study” value (from here on “weight change over the course”) [1] is reported as “lost weight”.
With `CO[C@@H]1[C@H](OC(=O)/C=C/C=C/C=C/C=C/C(=O)O)CC[C@]2(CO2)[C@H]1[C@@]1(C)O[C@@H]1CC=C(C)C` [fumagillin] the “expression of TXN” value (TXN in 293T cells) was “significantly increased”, the EC50 (TXN in Cos-1 cells; Chlorocebus aethiops, FIG. 4 gel, cell line (Cos-1 or 293T) not specified, read-out: EC50 to increase TXN levels) was less than 0.01 µM and the “expression of TXN” value (TXN in Cos-1 cells; Cos-1 cells transfected with FLAG-tagged TXN) was “significantly increased”. The “reduction in insulin secretion (C-peptide AUC)” value ([2]; end of 8 week treatment, OGTT) was 32%, the “reversal of the abnormality in the plasma glucose excursion during the OGTT” value ([2]; end of 8 week treatment, OGTT 0.9 g/kg) was 75% and the “improvement in plasma glucose after the drug was washed out” value ([2]; end of washout, OGTT) was “completely reversed”. For the same molecule, the beta hydroxybutyrate concentrations [3] was “increase”, the “free fatty acid concentration” value [3] was “without an increase” and the EC50 ([4]; Mus musculus, B16-F10, read-out: EC50 to increase Met-TXN acetylated Met-TXN levels) was less than 0.01 µM. For the same molecule, the “accumulation of N-acetyl TXN(1-4)” value ([4]; increasing concentrations) was “significant accumulation”, the “cellular level of TXN containing an intact N-terminal methionine [TXN(1-4)]” value ([4]; increasing concentrations) was “significantly increased” and the “reduction of FI” value ([5]; HFF dogs) was 29%. For the same molecule, the “loss of body weight” value ([5]; HFF dogs, daily oral, 8 weeks) was “approximately 8%”, the “loss of excess BW” value ([5]; HFF dogs, daily oral, 8 weeks) was 81% and the “weight loss sustained after discontinuation of treatment” value ([5]; HFF dogs, eight to ten weeks following discontinuation) was “approximately one half of the initial weight loss was sustained”. The BHB [5, 9] was 39 ± 7 µM, the FI [5, 9] was 1657 ± 147 kcal/day and the Glycerol [5, 9] was 66 ± 25 µM. The BW ([5]; High-fat high fructose dogs, WO (4 weeks washout)) was 31.7 ± 2.9 kg, the BHB [5, 10] was 76 ± 9 µM and the FI [5, 10] was 1187 ± 258 kcal/day. The Glycerol [5, 10] was 131 ± 54 µM, the BW ([5]; High-fat high fructose dogs, ZGNTx (8 weeks treatment)) was 30.8 ± 3.4 kg and the “reduction of FI” value ([5]; OWC dogs) was 9%. The weight gain ([5]; OWC dogs, daily oral, 8 weeks) was “inhibited weight gain”, the BHB ([5]; Overweight chow dogs, WO) was 44 ± 5 µM and the BW ([5]; Overweight chow dogs, WO) was 18.6 ± 0.7 kg. It also gave an FI ([5]; Overweight chow dogs, WO) of 1116 ± 22 kcal/day, a Glycerol ([5]; Overweight chow dogs, WO) of 86 ± 33 µM and a BHB ([5]; Overweight chow dogs, ZGNTx) of 48 ± 11 µM. The BW ([5]; Overweight chow dogs, ZGNTx) was 17.8 ± 0.5 kg, the FI ([5]; Overweight chow dogs, ZGNTx) was 1255 ± 64 kcal/day and the Glycerol ([5]; Overweight chow dogs, ZGNTx) was 143 ± 26 µM. For the same molecule, the BHB levels ([5]; overweight dogs, treatment) was “increased in HFF only”, the glycerol levels ([5]; overweight dogs, treatment) was “increased” and the body weight [6] was “reduction in body weight down to the level of low fat fed mice”. The reduction in fat ([6]; HF mice) was 40-50%, the “reduction in lean tissue” value ([6]; HF mice) was 5-10% and the “food intake during period of rapid weight loss” value ([7]; 14 days, second phase) was “inhibited”. The “food intake after weight loss reaches a nadir” value ([7]; third phase) was “returns to normal levels”, the “retroperitoneal fat pad weight” value ([8]; 1 mg/kg daily, 250 days) was “more similar to that of age-matched lean mice” and the “size and appearance of epididymal fat, peri-renal fat and liver” value ([8]; 1 mg/kg daily, 250 days) was “more similar to that of age-matched lean mice”. For the same molecule, the “maintained weight less than that of age-matched lean mice on normal chow” value ([8]; 1 mg/kg daily, after maximum weight reduction) was 25%, the “fasted glucose and insulin levels, insulin-glucose product” value ([8]; 1 mg/kg, high fat diet mice) was “more similar to that of age-matched lean mice” and the “hydroxybutyrate concentration at longer time points” value [8, 11] was “Increased hydroxybutyrate concentration persisted”. For the same molecule, the “reduction in body fat” value [8, 11] was “approximately 40%”, the adipocyte size ([8]; high fat diet mice) was “more similar to that of age-matched lean mice” and the “crown-like structures in adipose tissue” value ([8]; high fat diet mice) was “absent”. For the same molecule, the sensitivity to insulin ([8]; mice on a high fat diet) was “normalizes sensitivity to insulin” and the “weight change over the course” value [1] was “lost the most weight”.
With `CO[C@@H]1[C@H](OC(=O)NCCC2CCCN2C)CC[C@]2(CO2)[C@H]1[C@@]1(C)O[C@@H]1CC=C(C)C` (some centres unmarked) [C] the “weight change over the course” value [1] was “lost weight”.
